Measured values reported in ChEMBL document CHEMBL1201862, “PubChem BioAssay data set” (2004).
The source made the active and inactive calls.

Columns and labels:
Escherichia coli = test: microbe, parasite or virus in culture
[1] = target: Peroxisome proliferator-activated receptor gamma/Nuclear receptor coactivator 1 (Homo sapiens, UniProt P37231); test: (§1) TR-FRET dose response biochemical High Throughput Screening assay for agonists of the steroid receptor coactivator 1 (SRC-1) recruitment by the peroxisome proliferator-activated receptor gamma (PPAR gamma): non-selective agonists. [Related pubchem assays (depositor defined):AID1300, AID1808, AID504735, AID631]; type: protein assay
[2] = target: Peroxisome proliferator-activated receptor gamma/Nuclear receptor coactivator 3 (Homo sapiens, UniProt P37231); test: as §1, with “3 (SRC-3)” for “1 (SRC-1)”, “assays: 1301 (Confirmation screen.), 1048 (Primary screen.)]” for “assays (depositor defined):AID1300, AID1808, AID504735, AID631]”; type: functional
Sequence of Peroxisome proliferator-activated receptor gamma/Nuclear receptor coactivator 3 (P37231 whole entry): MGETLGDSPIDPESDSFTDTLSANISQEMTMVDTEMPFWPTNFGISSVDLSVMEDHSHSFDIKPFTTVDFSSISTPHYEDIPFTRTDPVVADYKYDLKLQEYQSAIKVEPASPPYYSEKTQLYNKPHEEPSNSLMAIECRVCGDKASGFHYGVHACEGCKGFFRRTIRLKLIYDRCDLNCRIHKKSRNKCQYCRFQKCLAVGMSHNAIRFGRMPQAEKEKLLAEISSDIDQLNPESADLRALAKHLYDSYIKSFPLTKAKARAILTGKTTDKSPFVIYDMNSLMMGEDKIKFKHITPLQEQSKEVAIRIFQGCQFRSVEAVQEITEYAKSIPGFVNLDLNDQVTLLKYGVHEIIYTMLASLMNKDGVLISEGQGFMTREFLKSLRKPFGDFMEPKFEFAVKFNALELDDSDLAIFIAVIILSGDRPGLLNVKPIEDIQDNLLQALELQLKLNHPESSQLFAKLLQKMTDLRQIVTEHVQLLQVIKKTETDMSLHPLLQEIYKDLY
Sequence of Peroxisome proliferator-activated receptor gamma/Nuclear receptor coactivator 3 (Q9Y6Q9 whole entry, further chain): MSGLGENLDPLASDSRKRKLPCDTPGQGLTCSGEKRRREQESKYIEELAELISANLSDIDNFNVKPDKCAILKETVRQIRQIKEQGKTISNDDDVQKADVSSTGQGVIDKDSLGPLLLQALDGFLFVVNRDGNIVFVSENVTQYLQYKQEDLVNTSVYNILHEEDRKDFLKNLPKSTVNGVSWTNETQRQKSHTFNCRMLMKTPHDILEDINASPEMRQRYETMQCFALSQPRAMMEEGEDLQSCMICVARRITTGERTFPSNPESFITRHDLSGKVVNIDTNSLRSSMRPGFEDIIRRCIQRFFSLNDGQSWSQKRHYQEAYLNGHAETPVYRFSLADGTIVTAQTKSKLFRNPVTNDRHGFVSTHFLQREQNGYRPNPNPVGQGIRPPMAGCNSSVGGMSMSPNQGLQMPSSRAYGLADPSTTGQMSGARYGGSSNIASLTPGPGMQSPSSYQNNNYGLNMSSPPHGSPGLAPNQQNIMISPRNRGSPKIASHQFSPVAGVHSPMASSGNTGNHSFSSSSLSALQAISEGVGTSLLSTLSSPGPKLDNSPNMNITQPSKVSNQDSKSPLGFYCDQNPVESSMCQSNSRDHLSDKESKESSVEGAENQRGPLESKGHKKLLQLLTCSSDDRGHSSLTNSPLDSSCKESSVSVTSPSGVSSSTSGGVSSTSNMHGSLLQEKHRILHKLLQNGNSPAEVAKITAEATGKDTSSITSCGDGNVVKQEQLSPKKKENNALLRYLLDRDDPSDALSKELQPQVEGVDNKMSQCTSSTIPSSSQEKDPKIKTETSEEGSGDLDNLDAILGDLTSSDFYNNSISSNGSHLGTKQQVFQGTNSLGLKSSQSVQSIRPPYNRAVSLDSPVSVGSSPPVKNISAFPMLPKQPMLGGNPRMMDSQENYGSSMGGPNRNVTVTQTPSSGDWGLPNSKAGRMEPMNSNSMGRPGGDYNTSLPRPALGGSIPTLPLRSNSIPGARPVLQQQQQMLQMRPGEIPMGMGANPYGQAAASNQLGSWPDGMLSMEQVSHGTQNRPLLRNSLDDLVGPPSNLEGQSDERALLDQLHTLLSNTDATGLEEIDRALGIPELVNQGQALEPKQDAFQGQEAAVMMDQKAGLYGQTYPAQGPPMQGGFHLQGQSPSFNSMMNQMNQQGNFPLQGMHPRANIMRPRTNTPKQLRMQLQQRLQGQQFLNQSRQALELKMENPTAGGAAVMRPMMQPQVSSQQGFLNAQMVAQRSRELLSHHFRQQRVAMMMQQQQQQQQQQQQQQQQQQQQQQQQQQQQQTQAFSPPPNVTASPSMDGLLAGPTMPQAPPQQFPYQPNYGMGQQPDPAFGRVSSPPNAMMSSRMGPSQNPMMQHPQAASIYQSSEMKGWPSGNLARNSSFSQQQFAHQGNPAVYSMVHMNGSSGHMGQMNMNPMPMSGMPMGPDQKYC

[3] = target: Peroxisome proliferator-activated receptor gamma/Nuclear receptor coactivator 2 (Homo sapiens, UniProt P37231); test: TR-FRET dose response biochemical High Throughput Screening assay for agonists of the steroid receptor coactivator 2 (SRC-2) recruitment by the peroxisome proliferator-activated receptor gamma (PPAR gamma): non-selective agonists. [Related pubchem assays: 1297, 1032 ]; type: functional
Sequence of Peroxisome proliferator-activated receptor gamma/Nuclear receptor coactivator 2 (P37231 whole entry): as the sequence (P37231 whole entry) above
Sequence of Peroxisome proliferator-activated receptor gamma/Nuclear receptor coactivator 2 (Q15596 whole entry, further chain): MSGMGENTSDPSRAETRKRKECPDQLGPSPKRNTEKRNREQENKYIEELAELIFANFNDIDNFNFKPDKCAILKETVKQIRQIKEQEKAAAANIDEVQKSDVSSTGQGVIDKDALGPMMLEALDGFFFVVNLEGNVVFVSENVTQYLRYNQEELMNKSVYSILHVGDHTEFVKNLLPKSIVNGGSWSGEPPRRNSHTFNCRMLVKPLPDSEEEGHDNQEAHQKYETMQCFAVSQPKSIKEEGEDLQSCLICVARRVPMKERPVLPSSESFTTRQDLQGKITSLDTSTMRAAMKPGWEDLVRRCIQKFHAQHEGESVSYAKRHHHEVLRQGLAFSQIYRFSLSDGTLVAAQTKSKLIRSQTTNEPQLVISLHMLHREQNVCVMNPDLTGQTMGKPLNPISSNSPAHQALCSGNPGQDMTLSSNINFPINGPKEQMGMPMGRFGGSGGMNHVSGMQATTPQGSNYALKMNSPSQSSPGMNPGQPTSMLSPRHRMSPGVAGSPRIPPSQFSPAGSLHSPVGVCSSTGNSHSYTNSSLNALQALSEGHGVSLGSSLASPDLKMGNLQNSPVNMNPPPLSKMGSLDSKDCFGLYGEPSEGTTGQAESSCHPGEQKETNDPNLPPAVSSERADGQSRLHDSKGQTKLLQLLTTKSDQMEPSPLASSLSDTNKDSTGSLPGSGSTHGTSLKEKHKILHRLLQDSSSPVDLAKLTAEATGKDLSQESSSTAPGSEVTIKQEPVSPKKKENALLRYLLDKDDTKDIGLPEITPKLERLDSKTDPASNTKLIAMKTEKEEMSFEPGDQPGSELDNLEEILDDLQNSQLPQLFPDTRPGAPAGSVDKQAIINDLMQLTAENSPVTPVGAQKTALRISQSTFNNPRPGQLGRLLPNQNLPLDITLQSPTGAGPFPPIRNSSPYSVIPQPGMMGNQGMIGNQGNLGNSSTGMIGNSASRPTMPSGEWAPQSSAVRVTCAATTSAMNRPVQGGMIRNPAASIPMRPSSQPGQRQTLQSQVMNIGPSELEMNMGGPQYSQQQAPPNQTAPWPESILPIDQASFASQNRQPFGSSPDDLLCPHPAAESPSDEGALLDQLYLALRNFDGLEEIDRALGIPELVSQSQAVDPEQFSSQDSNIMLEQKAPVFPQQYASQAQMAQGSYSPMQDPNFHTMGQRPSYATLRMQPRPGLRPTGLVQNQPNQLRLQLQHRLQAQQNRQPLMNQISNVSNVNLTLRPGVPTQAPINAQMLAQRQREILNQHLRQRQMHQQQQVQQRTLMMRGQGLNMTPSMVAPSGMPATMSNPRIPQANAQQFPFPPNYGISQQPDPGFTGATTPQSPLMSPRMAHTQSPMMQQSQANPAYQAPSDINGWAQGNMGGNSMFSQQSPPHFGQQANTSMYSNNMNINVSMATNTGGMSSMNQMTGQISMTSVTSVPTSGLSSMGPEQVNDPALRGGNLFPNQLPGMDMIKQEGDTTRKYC

[4] = Luminescence Cell-Based Dose Confirmation HTS to Identify Activators of 5'UTR Stem-Loop Driven Alpha-Synuclein mRNA Translation in H4 Neuroglioblastoma Cells. [Related pubchem assays: 1829 (Project Summary), 1814 (Primary HTS)]; type: functional
[5] = Luminescence Cell-Based Dose Response HTS to Identify Activators of Luciferase Translation or Activity in H4 […] Cells. [Related pubchem assays: 1829 (Project Summary), 1814 (Primary HTS)]; type: functional
H4 = test: Luminescence Cell-Based Dose Response HTS to Identify Activators of 5'UTR Stem-Loop Driven Prion Protein mRNA Translation in H4 Neuroglioblastoma Cells. [Related pubchem assays: 1829 (Project Summary), 1814 (Primary HTS)]; type: functional; details: Homo sapiens
[6] = target: T1, Short transient receptor potential channel 4 (Mus musculus, UniProt Q9QUQ5); test: block of DAMGO-driven TRPC4 calcium entry – cell-based, HEK293 TRPC4/mu-opioid, Fluo-4 calcium, dose response (AID 434942); type: functional;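 note: potency of inhibitors blocking the TRPC4 calcium response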
T1 sequence (Q9QUQ5 whole entry): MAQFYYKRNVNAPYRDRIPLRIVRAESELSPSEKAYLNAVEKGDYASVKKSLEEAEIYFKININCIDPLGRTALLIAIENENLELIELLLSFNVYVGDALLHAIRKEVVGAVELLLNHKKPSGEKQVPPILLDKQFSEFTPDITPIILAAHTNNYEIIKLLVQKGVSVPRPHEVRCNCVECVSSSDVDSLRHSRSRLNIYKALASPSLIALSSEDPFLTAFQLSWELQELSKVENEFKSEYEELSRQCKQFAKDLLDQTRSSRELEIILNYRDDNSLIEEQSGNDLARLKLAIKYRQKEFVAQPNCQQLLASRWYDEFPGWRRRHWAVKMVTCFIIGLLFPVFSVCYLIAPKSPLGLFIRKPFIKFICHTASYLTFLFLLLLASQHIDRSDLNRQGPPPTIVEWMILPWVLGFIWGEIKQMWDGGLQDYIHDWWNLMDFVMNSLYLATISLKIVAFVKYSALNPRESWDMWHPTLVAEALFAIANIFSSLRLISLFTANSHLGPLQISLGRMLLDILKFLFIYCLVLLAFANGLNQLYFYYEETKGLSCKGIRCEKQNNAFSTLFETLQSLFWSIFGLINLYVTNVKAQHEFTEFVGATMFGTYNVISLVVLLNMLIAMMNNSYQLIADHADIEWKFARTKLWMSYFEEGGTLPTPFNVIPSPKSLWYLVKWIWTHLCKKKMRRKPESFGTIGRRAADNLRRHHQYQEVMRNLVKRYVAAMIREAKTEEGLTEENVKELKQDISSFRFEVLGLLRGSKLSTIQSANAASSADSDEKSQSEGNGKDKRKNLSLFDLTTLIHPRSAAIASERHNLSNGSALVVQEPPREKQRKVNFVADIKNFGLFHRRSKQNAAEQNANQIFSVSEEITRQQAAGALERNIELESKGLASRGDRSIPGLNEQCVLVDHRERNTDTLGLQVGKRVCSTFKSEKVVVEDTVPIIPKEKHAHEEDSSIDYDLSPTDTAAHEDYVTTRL

[7] = target: FAD-linked sulfhydryl oxidase ALR (Homo sapiens, UniProt P55789); test: ALR-catalysed DTT oxidation blockers – biochemical, H2O2 detection, luminescence, cherry-pick, dose response (AID 493248)
Sequence of FAD-linked sulfhydryl oxidase ALR (P55789 whole entry): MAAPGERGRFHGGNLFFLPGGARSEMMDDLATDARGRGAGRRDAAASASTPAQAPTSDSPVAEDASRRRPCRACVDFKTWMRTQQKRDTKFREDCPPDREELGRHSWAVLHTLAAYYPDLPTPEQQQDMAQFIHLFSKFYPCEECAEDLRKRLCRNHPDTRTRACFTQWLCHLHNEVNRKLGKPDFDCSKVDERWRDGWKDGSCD

Genome polyprotein = Genome polyprotein (dengue virus type 2, UniProt P29990); test: flavivirus cap methylation enzyme inhibition – biochemical, confirmation dose response, primary screen (AID 588689); type: functional
[8] = target: Alkaline phosphatase, placental type (Homo sapiens, UniProt P05187); test: human placental alkaline phosphatase inhibition – biochemical, luminescence, confirmation (AID 1512); type: functional
Sequence of Alkaline phosphatase, placental type (P05187 whole entry): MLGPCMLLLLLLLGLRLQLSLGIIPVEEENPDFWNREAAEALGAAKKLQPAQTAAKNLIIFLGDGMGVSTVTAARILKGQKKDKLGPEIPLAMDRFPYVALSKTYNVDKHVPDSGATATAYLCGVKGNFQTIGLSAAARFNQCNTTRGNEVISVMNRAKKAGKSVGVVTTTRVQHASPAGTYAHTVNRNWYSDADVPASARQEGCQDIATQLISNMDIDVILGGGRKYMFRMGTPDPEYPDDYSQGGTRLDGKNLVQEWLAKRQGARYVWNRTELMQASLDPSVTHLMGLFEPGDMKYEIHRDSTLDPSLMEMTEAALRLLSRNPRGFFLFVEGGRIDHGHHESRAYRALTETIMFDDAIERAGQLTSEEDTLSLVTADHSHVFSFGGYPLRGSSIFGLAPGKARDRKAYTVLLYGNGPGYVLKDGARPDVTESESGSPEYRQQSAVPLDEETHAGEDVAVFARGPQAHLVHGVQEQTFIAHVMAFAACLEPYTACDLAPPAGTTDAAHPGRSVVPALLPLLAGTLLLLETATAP

[9] = target: T2, Alkaline phosphatase, tissue-nonspecific isozyme (Homo sapiens, UniProt P05186); test: potency against alkaline phosphatase TNAP – biochemical, luminescent, dose response, SAR follow-up (AID 1056)
T2 sequence (P05186 whole entry): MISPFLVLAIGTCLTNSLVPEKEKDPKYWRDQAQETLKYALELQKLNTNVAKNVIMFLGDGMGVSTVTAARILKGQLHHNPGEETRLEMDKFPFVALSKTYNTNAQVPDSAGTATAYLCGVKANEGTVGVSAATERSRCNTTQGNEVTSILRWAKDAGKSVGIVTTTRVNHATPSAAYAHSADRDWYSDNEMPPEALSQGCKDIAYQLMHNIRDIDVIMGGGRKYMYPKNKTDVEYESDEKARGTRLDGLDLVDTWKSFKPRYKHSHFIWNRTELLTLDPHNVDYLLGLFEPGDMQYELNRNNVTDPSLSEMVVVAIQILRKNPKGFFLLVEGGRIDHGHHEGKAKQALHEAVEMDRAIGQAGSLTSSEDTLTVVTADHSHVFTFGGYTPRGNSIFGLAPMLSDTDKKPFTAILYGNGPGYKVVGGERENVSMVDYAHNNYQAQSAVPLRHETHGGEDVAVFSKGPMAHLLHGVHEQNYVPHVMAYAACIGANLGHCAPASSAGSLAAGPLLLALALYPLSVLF

[10] = target: T3, High affinity choline transporter 1 (Homo sapiens, UniProt Q9GZV3); test: human choline transporter blockers, potency – cell-based, 5-point CRC, membrane potential dye, dose response (AID 504840); type: functional
T3 sequence (Q9GZV3 whole entry): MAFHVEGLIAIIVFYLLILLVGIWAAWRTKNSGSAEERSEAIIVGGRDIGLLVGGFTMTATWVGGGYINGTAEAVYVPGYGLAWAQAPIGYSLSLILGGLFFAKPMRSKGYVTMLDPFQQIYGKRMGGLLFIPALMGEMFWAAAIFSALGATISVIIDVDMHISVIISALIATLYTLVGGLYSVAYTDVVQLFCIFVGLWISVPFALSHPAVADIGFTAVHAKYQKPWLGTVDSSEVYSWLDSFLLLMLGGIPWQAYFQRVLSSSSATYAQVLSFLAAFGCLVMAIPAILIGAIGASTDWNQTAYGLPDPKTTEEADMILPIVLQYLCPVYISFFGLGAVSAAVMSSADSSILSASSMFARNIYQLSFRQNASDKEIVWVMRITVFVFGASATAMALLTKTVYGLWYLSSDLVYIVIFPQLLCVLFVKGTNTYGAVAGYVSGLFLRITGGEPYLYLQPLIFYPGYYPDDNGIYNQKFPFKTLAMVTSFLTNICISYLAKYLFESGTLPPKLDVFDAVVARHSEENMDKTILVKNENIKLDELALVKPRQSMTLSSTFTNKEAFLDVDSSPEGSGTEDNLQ

[11] = HEK-293T viability loss after treatment – luminescence, T-cell screen hits, cytotoxicity control for TCR NF-kB inhibitor project, dose response (AID 489026); type: functional, cell-based;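 note: cells exposed to compound about 14 hours before the viability readout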
INS1 = test: INS-1E survival protection against cytokine death – cell-based, luminescence, retest, dose response (AID 449756); type: functional; details: Rattus norvegicus;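 note: cell death triggered by IL-1 beta plus TNF-alpha plus IFN-gamma mixture; protective hits raise ATP signal compared with cytokine alone wells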
[12] = luciferase reporter signal suppression in cells – H4 neuroglioma cells, luminescence, dose response (AID 1990); type: functional, cell-based
BJ [13] = test: BJ-TERT fibroblast viability loss – cell-based, RAS-independent, luminescence, dose response (AID 1933); type: functional; details: Homo sapiens
[14] = Luminescence Cell-Based Dose Response HTS to Identify Inhibitors of 5'UTR Stem-Loop Driven Prion Protein mRNA Translation in H4 Neuroglioblastoma Cells. [Related pubchem assays: 1827 (Project Summary), 1813 (Primary HTS)]; type: functional
[15] = alpha-synuclein stem-loop luciferase translation blockers – H4 neuroglioma cells, luminescence, confirmation (AID 1988); type: functional, cell-based
BJ [16] = test: BJ-TERT-LT-ST fibroblast viability loss – cell-based, RAS-independent, luminescence, dose response (AID 1935); type: functional; details: Homo sapiens;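 note: BJ fibroblasts immortalized with TERT plus LT and ST oncogenes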
[17] = DRD fibroblast viability loss – cell-based, non-viral oncogenic, luminescence, dose response (AID 1934); type: functional; details: Homo sapiens
[18] = Luminescence Cell-Based Dose Retest to Confirm Inhibitors of Cancer Stem Cells. [Related pubchem assays (depositor defined):AID2717, AID2721]; type: functional; details: Homo sapiens
Vero [19] = test: cells; type: functional, cell-based; details: Chlorocebus sabaeus
[20] = target: T4, Carboxy-terminal domain RNA polymerase II polypeptide A small phosphatase 1 (Homo sapiens, UniProt Q9GZU7); test: CTDSP1 inhibitors, concentration-response, biochemical, absorbance readout, ultra-high-throughput screen actives (AID 540297); type: functional
T4 sequence (Q9GZU7 whole entry): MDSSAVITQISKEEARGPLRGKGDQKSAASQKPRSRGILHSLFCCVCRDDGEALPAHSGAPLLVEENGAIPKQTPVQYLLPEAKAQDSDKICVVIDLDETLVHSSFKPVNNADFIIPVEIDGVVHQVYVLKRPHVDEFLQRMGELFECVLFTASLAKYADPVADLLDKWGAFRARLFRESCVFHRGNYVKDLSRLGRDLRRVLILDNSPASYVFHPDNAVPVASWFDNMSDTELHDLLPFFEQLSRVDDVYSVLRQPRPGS

Vero [21] = test: cells; type: functional; details: Chlorocebus sabaeus
[22] = Trypanosoma cruzi growth suppression in host cells – NIH3T3 host cells, beta-gal luminescence, confirmation (AID 2044); type: functional, cell-based;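 note: intracellular parasites grown in NIH/3T3 mouse fibroblasts as host cells; luminescent beta-galactosidase reporter signal from transgenic T. cruzi replicating inside host cells; inhibitors lower the luminescence signal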
[23] = NIH3T3 cell viability loss – ATP luminescence, mouse fibroblasts, counter-screen, dose response (AID 2010); type: functional, cell-based;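 note: cells exposed to compound for about 90 hours before reading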

Compound: CC(C)(C)c1ccc(C(=O)n2cnc3ccccc32)cc1
- AC50 (Escherichia coli): 33.1 µM (active)

Compound: O=C(CSc1ncnc2c1oc1ccccc12)Nc1cccc(C(F)(F)F)c1
- EC50 [1]: > 79.4 µM (inactive)
- EC50 [2]: > 79.4 µM (not active)
- EC50 [3]: 23 µM (not active)

Compound: Cc1cc2ncn(CCOc3ccccc3)c2cc1C
- EC50 [4]: 19.4 µM (active)
- EC50 [5]: 39 µM (active)
- EC50 (H4): 38.8 µM (active)
- AC50 (Escherichia coli): 41.4 µM (active)

Compound: COc1cccc(/C=C2\SC(=S)N(NS(=O)(=O)c3ccc(C)cc3)C2=O)c1OC
- EC50 [6]: 8.41 µM (active)
- AC50 [7]: 9.05 µM (active)
- IC50 (Genome polyprotein): 36.2 µM (active)

Compound: Cc1cc(C)c2c(O)nc(SCC(=O)c3ccc(O)c(O)c3)nc2n1
- IC50 [8]: 8.77 µM (active)
- IC50 [9]: > 100 µM (inactive)

Compound: CCc1nccn1CC(=O)c1ccc(O)c(O)c1
- IC50 [8]: 3.73 µM (active)
- IC50 [9]: 62.5 µM (active)

Compound: CC(=O)Nc1ccc(Nc2cc(C)c3ccccc3n2)cc1
- IC50 [10]: 11.2 µM (active)

Compound: Cc1nc2ccccc2c(=O)n1CCCO
- AC50 (Escherichia coli): 27.2 µM (active)

Compound: Cc1cc(C)cc(NC(=O)c2cc(C)n(Cc3cccs3)c2C)c1
- IC50 [11]: > 80 µM (inactive)

Compound: Cc1ccccc1OCCn1c(C)nc2ccccc21
- EC50 [6]: 1.19 µM (active)
- AC50 (INS1): 8.1 µM (active)

Compound: COc1cccc(-c2cc(O)c3cc(NC(=O)c4ccc(N(C)C)cc4)ccc3n2)c1
- EC50 [12]: 0.334 µM (active)
- EC50 (BJ [13]): 0.664 µM (active)
- EC50 [14]: 1.24 µM (active)
- EC50 [15]: 0.296 µM (active)
- EC50 (BJ [16]): 0.729 µM (inconclusive)
- EC50 [17]: 0.599 µM (active)
- AC50 [18]: 0.477 µM (active)
- IC50 [11]: > 80 µM (inactive)

Compound: COc1cc(S(=O)(=O)Nc2cc(C)cc(C)c2)ccc1F
- AC50 (Escherichia coli): 64.9 µM (active)

Compound: Nc1nnc(-c2cc3ccccc3oc2=O)s1
- IC50 [8]: > 100 µM (inactive)
- IC50 [9]: > 100 µM (inactive)

Compound: CC(=O)Nc1cc[n+](CC(=O)c2cccc([N+](=O)[O-])c2)cc1
- IC50 (Vero [19]): 6.55 µM (active)

Compound: CC(=O)Nc1ccc(CCNC(=O)c2ccc3ccccc3c2O)cc1
- IC50 (Vero [19]): > 25 µM (active)

Compound: COc1ccc(CC(=O)NNC(=O)COc2ccc3ccccc3c2)cc1
- EC50 [1]: 2 µM (active)
- EC50 [2]: 3.65 µM (active)
- EC50 [3]: 1.93 µM (active)
- IC50 [20]: 9.26 µM (active)

Compound: CC(C)COC(=O)CNc1nnc(S)nc1O
- EC50 [1]: 2.86 µM (active)
- EC50 [2]: 37.9 µM (not active)
- EC50 [3]: 3.42 µM (active)

Compound: CC(=O)/C=C1/C(=O)Nc2ccccc21
- IC50 (Vero [19]): > 25 µM (active)
- CC50 (Vero [21]): 21.9 µM (active)

Compound: c1ccc(CN2CCN(Cc3c[nH]c4ccccc34)CC2)cc1
- EC50 [22]: 0.277 µM (active)
- EC50 [23]: > 30 µM (not active)
- EC50 [6]: 5.96 µM (active)
- AC50 (INS1): 8.01 µM (active)
